Laboratory results taken from patent US12569480B2, “Methods of treating fibrosis using compounds that promote glucose oxidation” (IMBRIA PHARMACEUTICALS, INC., priority 2019, dated 2026).

Key:
TAC mice [1] = assay: TAC mice, 6-week minipump treatment: echocardiography; format: in vivo; settings: in words
TAC mice [2] = assay: TAC mice, 6-week minipump treatment: heart weight and heart weight/body weight; format: in vivo; settings: in words, 6 weeks, NA 2.4 mg/kg/day
[3] = system: isolated hearts after ischemia-reperfusion; assay: Ischemia-reperfusion (IR), isolated hearts (Langendorff): cardiac function (left ventricular pressure); parameters: species or system mice; settings: in words; TMZ 20 μM; TNF 2 μM each; TNS 20 μM each
Procedure: FIG. 38 is a schematic of the ischemia-reperfusion (IR) method used to analyze the effects of selected compositions on coronary flow, cardiac function, and infarct size. […] At 20 minutes, ischemia was induced, and coronary flow was analyzed. At 50 minutes, reperfusion was initiated to restore blood flow. At 170 minutes, coronary flow and cardiac function was analyzed, and then the hearts were preserved, sectioned, and infarct size was measured by triphenyltetrazolium chloride (TTC) staining.

TAC mice [4] = assay: TAC mice, 6-week minipump treatment: left ventricular pressure by Mikro-tip catheter; format: in vivo; settings: 6 weeks, CV-8972 10 mg/kg/day, TAC control −5697±417
TAC mice [5] = assay: TAC mice, 6-week minipump treatment: cardiac fibrosis, Masson's trichrome; format: in vivo; settings: 6 weeks, TMZ 6, NA 2.4, CV-8814 7.5, CV-8972 10 mg/kg/day, TAC control 10.7±1
[6] = to the end of the study (6 weeks)

For O=C(O)c1cccnc1 [NA, nicotinic acid, reference compound], the IVSd (TAC mice [1]; TAC mice, NA 2.4 mg/kg/day) was “decreased IVSd”, the LV mass (TAC mice [1]; TAC mice, NA 2.4 mg/kg/day) was “no effect on LV mass” and the “effect on cardiac remodeling” value (TAC mice [2]) was “no significant effect on cardiac remodeling”.
COc1ccc(CN2CCNCC2)c(OC)c1OC [TMZ, trimetazidine] was tested, and the “cardiac function (LVDP) after IR” value [3] was “prevented a decline in cardiac function”.
COc1ccc(CN2CCN(CCOC(=O)c3cccnc3)CC2)c(OC)c1OC [CV-8972, 2-(4-(2,3,4-trimethoxybenzyl)piperazin-1-yl)ethyl nicotinate] was tested, and the “−dp/dtm” value (TAC mice [4]) was −4126±339 mm Hg/sec, the EF (TAC mice [1]; 3-weeks after TAC) was “significantly increased” and the EF (TAC mice [1]; [6]) was “protective effect was sustained”.
With COc1ccc(CN2CCN(CCO)CC2)c(OC)c1OC [CV-8814, 2-(4-(2,3,4-trimethoxybenzyl)piperazin-1-yl)ethan-1-ol] the “cardiac fibrosis (fibrotic area to whole heart tissue area)” value (TAC mice [5]) was 6.6±0.6%, the EF (TAC mice [1]; 3-weeks after TAC) was “significantly increased” and the EF (TAC mice [1]; [6]) was “protective effect was sustained”.
